# Reference: patent US12240816B2, “Deuterated compounds and uses thereof” (Aldeyra Therapeutics, Inc., priority 2015, dated 2025)
# “And” between values parts separate entries of the source, which are not always exact repeats. Equal values may be shown once. “Also recorded” adds a separate entry of the source. Marks after values point to notes of the source that are not given here.
# Legend:
# [1] = system: rat hippocampal cultures; test: cells; type: cell-based; conditions: for % of Control (CFDA) / CFDA signal, Mean: CBD 10 μM + 10 μM hydrogen peroxide
# [2] = system: rat hippocampal cultures; test: Propidium iodide cell death assay, protection from hydrogen peroxide toxicity; type: cell-based; conditions: for % of Control (PI) / PI signal, replicate wells: CBD 10 μM + 10 μM hydrogen peroxide
# [3] = biological target: enzyme and uptake assay panel targets (Table 36) (Homo sapiens, UniProt Q9BYF1); test: biochemical; type: biochemical; conditions: ACE-2 (h); reference compound
# Chain of enzyme and uptake assay panel targets (Table 36) (Homo sapiens, UniProt Q9BYF1) (Q9BYF1 18-805): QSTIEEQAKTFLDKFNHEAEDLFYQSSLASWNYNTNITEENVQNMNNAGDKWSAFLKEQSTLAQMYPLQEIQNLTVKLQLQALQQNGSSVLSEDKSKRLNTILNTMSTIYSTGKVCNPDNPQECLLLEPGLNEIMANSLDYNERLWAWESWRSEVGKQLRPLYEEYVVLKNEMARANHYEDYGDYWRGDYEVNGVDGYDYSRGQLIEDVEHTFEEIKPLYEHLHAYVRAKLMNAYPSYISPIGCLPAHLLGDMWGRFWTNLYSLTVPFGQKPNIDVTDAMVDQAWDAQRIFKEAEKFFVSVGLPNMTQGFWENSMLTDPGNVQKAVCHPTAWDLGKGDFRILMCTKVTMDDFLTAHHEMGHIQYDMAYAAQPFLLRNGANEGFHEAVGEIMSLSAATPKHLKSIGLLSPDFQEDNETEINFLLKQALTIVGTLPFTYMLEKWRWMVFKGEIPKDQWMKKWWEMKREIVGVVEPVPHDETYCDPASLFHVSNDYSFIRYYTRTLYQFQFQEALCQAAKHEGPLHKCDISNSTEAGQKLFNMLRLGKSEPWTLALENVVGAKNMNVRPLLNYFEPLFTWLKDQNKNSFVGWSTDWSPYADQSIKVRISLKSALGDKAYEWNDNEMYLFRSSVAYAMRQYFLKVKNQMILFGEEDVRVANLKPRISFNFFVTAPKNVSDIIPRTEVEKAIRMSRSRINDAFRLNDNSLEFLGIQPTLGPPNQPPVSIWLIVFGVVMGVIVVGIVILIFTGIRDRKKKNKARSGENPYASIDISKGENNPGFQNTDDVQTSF
# [4] = biological target: enzyme and uptake assay panel targets (Table 36) (Mus musculus, UniProt P29477); test: biochemical; type: biochemical; conditions: inducible NOS; reference compound
# Chain of enzyme and uptake assay panel targets (Table 36) (Mus musculus, UniProt P29477) (P29477 whole entry): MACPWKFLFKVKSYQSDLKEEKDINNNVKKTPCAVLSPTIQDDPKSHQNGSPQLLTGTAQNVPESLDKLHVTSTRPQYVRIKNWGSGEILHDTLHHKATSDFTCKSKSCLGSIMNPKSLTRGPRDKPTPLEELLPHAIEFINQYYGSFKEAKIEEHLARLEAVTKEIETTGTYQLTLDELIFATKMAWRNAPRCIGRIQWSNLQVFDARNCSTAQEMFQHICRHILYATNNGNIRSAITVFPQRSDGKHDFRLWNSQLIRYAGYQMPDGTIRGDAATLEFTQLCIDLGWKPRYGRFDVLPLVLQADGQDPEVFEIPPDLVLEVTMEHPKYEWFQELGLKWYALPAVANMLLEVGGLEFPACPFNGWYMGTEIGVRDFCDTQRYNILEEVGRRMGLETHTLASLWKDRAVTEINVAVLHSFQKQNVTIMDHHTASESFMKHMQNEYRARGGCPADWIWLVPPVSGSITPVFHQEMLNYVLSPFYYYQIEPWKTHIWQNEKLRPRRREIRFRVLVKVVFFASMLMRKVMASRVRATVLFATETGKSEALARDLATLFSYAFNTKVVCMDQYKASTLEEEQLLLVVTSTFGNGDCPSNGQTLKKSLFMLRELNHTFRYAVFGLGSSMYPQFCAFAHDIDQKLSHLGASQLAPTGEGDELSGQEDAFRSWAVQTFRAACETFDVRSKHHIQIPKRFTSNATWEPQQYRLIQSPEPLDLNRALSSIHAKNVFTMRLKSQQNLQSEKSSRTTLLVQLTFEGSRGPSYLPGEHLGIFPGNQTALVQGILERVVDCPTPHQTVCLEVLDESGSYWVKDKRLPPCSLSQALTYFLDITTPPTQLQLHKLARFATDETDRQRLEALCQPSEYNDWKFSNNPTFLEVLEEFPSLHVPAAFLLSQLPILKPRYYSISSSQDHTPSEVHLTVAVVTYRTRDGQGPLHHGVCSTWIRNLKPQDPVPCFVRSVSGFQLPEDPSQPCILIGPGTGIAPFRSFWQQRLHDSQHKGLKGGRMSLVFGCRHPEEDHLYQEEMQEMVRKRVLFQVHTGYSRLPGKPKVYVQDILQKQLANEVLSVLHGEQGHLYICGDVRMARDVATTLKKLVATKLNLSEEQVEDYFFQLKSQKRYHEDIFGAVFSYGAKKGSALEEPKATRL
# [5] = biological target: T1, MT3 (ML2) (Mesocricetus auratus, UniProt A0ABM2YAB8); test: MT3 (ML2) (agonist radioligand) binding assay; conditions: MT3 (ML2) (agonist radioligand)
# T1 sequence (A0ABM2YAB8 1-231): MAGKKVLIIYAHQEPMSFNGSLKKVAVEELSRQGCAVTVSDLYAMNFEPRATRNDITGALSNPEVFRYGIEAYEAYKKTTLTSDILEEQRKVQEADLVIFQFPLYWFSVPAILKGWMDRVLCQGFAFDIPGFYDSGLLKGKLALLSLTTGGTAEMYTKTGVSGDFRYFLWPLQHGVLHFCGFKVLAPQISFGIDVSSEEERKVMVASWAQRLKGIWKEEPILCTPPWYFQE
# [6] = biological target: T2, PR (h) (Homo sapiens, UniProt P06401); test: PR (h) (agonist radioligand) binding assay
# T2 construct: T47D cells (cytosol)
# T2 sequence (P06401 679-933): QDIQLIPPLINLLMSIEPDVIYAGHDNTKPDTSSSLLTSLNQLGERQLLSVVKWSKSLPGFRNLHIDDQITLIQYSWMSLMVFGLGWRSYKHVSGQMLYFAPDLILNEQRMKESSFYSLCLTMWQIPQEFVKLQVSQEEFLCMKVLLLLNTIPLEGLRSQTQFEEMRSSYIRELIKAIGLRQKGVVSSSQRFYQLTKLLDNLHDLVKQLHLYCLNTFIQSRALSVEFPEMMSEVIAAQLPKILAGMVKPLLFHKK
# [7] = Example 13, CFDA, DMSO, 10 μM hydrogen peroxide, 5 h, 0.1 to 300 μM tested
# [8] = Example 13, PI, DMSO, 10 μM hydrogen peroxide, 5 h, 0.1 to 300 μM tested
# [9] = 5 h, Experiment 9 (vehicle plates, Tables 17 and 18)
# [10] = positive control CBD + HP 10 μM, 5 hours
# [11] = 5 h, Experiment 10 (vehicle plates, Tables 19 and 20)
compound,measurement,setting,value
CC(C)(O)c1nc2ncccc2cc1N [ALD-5],EC50 ± SE,[1]; [7],Inactive
same,Full Efficacy Concentration,[1]; [7],Inactive
same,No effect Concentration,[1]; [7],Inactive
same,EC50 ± SE,[2]; [8],Inactive
same,Full Efficacy Concentration,[2]; [8],Inactive
same,No effect Concentration,[2]; [8],Inactive
same,protection from cell death,"[2]; PI, 0.1 to 300 μM, DMSO, 10 μM hydrogen peroxide, 5 h",no statistically significant protection from cell death; also recorded: did not produce statistically significant protection from cell death
CC(=O)NCC(=O)N[C@@H](CC(=O)O)C(=O)N[C@@H](Cc1ccc(O)cc1)C(=O)N[C@@H](CO)C(=O)N[C@@H](Cc1c[nH]cn1)C(=O)N[C@H]1CSSC[C@@H](C(=O)N[C@H](C(=O)N[C@@H](Cc2ccc(O)cc2)C(=O)N2CCC[C@H]2C(=O)N[C@@H](CC(=O)O)C(=O)N2CCC[C@H]2C(=O)N[C@@H](CCC(=O)O)C(=O)NCC(=O)NCC(=O)NCC(N)=O)[C@@H](C)O)NC(=O)[C@H](CCCCN)NC(=O)[C@H](Cc2c[nH]c3ccccc23)NC(=O)[C@H](Cc2c[nH]c3ccccc23)NC(=O)[C@@H]2CCCN2C(=O)[C@H](Cc2ccc(O)cc2)NC(=O)[C@H](Cc2ccc(O)cc2)NC(=O)[C@H](CCCNC(=N)N)NC(=O)[C@H](CC(C)C)NC(=O)[C@@H]2CCCN2C(=O)[C@H](CO)NC1=O [Ac-GG-26-NH2],IC50,[3],290 nM
same,nH,[3],2.4
"C=C(C)[C@@H]1CCC(C)=C[C@H]1c1c(O)cc(CCCCC)cc1O [CBD, cannabidiol, reference compound]",% of Control (CFDA),[1]; [9],99 ± 7%
same,"CFDA signal, Mean",[1]; [9],43543*
same,% of Control (CFDA),"[1]; 5 h, Table 9 plate",105 ± 4%
same,"CFDA signal, Mean","[1]; 5 h, Table 9 plate",48894*
same,% of Control (CFDA),"[1]; 5 h, Table 11 plate",103 ± 5%
same,"CFDA signal, Mean","[1]; 5 h, Table 11 plate",44366*
same,% of Control (CFDA),"[1]; 5 h, Table 13 plate",102 ± 12%
same,"CFDA signal, Mean","[1]; 5 h, Table 13 plate",40858*
same,% of Control (CFDA),"[1]; 5 h, Table 15 plate",100 ± 7%
same,"CFDA signal, Mean","[1]; 5 h, Table 15 plate",41741*
same,"Neuronal viability (CFDA), % of Control",[1]; [10],101 ± 3% and 97 ± 4%
same,"Neuronal viability (CFDA), Mean",[1]; [10],57221* and 57590* and 55059*
same,% of Control (PI),[2]; [11],112 ± 7%
same,"PI signal, replicate wells",[2]; [11],184 and 156 and 180
same,% of Control (PI),"[2]; 5 h, Table 10 plate",97 ± 9%
same,"PI signal, replicate wells","[2]; 5 h, Table 10 plate",117 and 180 and 121 and 192
same,% of Control (PI),"[2]; 5 h, Table 12 plate",102 ± 11%
same,"PI signal, replicate wells","[2]; 5 h, Table 12 plate",125 and 117 (2×) and 180 (2×)
same,% of Control (PI),"[2]; 5 h, Table 14 plate",108 ± 11%
same,"PI signal, replicate wells","[2]; 5 h, Table 14 plate",121 and 200 and 180 and 117
same,% of Control (PI),"[2]; 5 h, Table 16 plate",103 ± 8%
same,"PI signal, replicate wells","[2]; 5 h, Table 16 plate",129 and 184 and 180 and 117
same,"Cell death (Propidium Iodide), % of Control",[2]; [10],93 ± 9% and 91 ± 10% and 91 ± 8%
same,"Cell death (Propidium Iodide), Mean",[2]; [10],154* and 136* and 145*
same,"Cell death (Propidium Iodide), individual values",[2]; [10],171 and 123 and 197 and 119 and 83 and 147 and 164 and 139 and 104 and 175
CC(=N)NCc1cccc(CN)c1 [Compound 1400W],IC50,[4],40 nM
same,nH,[4],1.4
COc1ccc2[nH]cc(CCNC(C)=O)c2c1 [melatonin],IC50,[5],72 nM
same,Ki,[5],71 nM
same,nH,[5],0.8
CCC(=O)[C@@]1(C)CC[C@H]2[C@@H]3CCC4=CC(=O)CCC4=C3CC[C@@]21C [promegestone],IC50,[6],0.47 nM
same,Ki,[6],0.38 nM
same,nH,[6],1.6
